# Laboratory results reported in patent publication US20230241075A1, “IRAK DEGRADERS AND USES THEREOF” (Kymera Therapeutics, Inc., priority 2020, published 2023).
# Entries after “also recorded” stand apart in the source; their conditions may differ.
# System: TLR7/8 agonist R848-stimulated monocytes
# Assay: Ex-vivo R848-stimulated healthy monocytes, RNA-seq of HS-overexpressed proinflammatory transcripts
# Assay type: cell-based, human
# Conditions: healthy donor monocytes (N=3), 500 nM overnight, then R848, RNA-seq at 2 hours
structure (smiles),measurement,value
Cn1c(=O)n(C2CCC(=O)NC2=O)c2cccc(C#CCOC3CCN(C[C@H]4CC[C@H](n5cc(NC(=O)c6cnn7ccc(N8C[C@H]9C[C@@H]8CO9)nc67)c(C(F)F)n5)CC4)CC3)c21 (stereo partly shown) [Degrader 2],effect on TLR-mediated (R848) induction of HS-overexpressed proinflammatory transcripts,inhibits TLR-mediated induction of HS-overexpressed proinflammatory transcripts; also recorded: inhibits TLR-stimulated upregulation of HS-overexpressed inflammatory genes
